Our source for the IC50 and Ki values is ChEMBL document CHEMBL4673229, “Pancreatic Lipase Inhibitory Cyclohexapeptides from the Marine Sponge-Derived Fungus Aspergillus sp. 151304” (J Nat Prod, 2020).

Assay [1] concerns HeLa. Nature of the assay: Cytotoxicity against human HeLa cells assessed as reduction in cell viability incubated for 72 hrs by CCK8 assay. It counts as cell-based. On the technique in general: Formazan colour is commonly taken as a measure of viable cells.
Assay [2] relates to MCF7. Nature of the assay: Cytotoxicity against human MCF7 cells assessed as reduction in cell viability incubated for 72 hrs by CCK8 assay. The following applies: MCF7, 72 h. It counts as cell-based.
For assay [3], the system named is HepG2. As to the kind of experiment: Cytotoxicity against human HepG2 cells assessed as reduction in cell viability incubated for 72 hrs by CCK8 assay. Type of assay: cell-based. The settings on record: HepG2, 72 h.
Assay [4] is described as follows: Inhibition of porcine pancrease lipase type 2 assessed as decrease in 4-MU formation using 4-MUO as substrate preincubated for 3 mins followed by substrate addition and measured for 40 mins by fluorescence assay. On the set-up: species or system Sus scrofa domesticus, Pancreas.
Assay [5] in a line: Non-competitive inhibition of porcine pancrease lipase type 2 assessed as decrease in 4-MU formation using 4-MUO as substrate preincubated for 3 mins followed by substrate addition and measured for 40 mins by Lineweaver-Burk plot analysis. More on the design: species or system Sus scrofa domesticus, Pancreas.
The subject of assay [6] is PC-9. Nature of the assay: Cytotoxicity against human PC-9 cells assessed as reduction in cell viability incubated for 72 hrs by CCK8 assay. The following applies: PC-9, 72 h. Type of assay: cell-based.

Positions of bridges follow the written chain, without caps; N, C: chain ends. Non-standard residues stand in square brackets, D forms with d. Residues, ends and D or L forms follow the SMILES beside them. *: point of attachment. NMeY = CN[C@@H](Cc1ccc(O)cc1)C(=O)O; Propionyl = CCC(=O)* Bounds are passed on as bounds.

As a reminder, the IC50 is the concentration that gives 50% inhibition. As usually defined, the Ki is the equilibrium dissociation constant of an inhibitor or competing ligand from its target. In the case of `CC(=O)N[C@@H]1C(=O)N[C@@H](C(C)C)C(=O)N2CCC[C@H]2C(=O)N[C@H](C(C)C)C(=O)N[C@@H](Cc2ccc(O)cc2)C(=O)N[C@@H](Cc2ccc(O)cc2)C(=O)O[C@@H]1C`, the half-inhibitory concentration (IC50) in assay [1] is above 20 µM; in assay [2], above 20 µM; in assay [3] it was above 20 µM; in assay [4] it was 0.5 µM; in assay [6], above 20 µM. Also, in assay [5], the Ki was 2 µM.

For `CC(=O)N[C@@H]1C(=O)N[C@@H](C(C)C)C(=O)N2CCC[C@H]2C(=O)N[C@@H](C(C)C)C(=O)N(C)[C@@H](Cc2ccc(O)cc2)C(=O)N[C@@H](Cc2ccc(O)cc2)C(=O)O[C@@H]1C` (Ac-TVPV[NMeY]Y; ester 1-C), the IC50 in assay [1] was above 20 µM; in assay [2], above 20 µM; in assay [3], above 20 µM; in assay [4], 7.6 µM; in assay [6] it was above 20 µM.

As for `CCC(=O)N[C@@H]1C(=O)N[C@@H](C(C)C)C(=O)N2CCC[C@H]2C(=O)N[C@@H](C(C)C)C(=O)N(C)[C@@H](Cc2ccc(O)cc2)C(=O)N[C@@H](Cc2ccc(O)cc2)C(=O)O[C@@H]1C` (Propionyl-TVPV[NMeY]Y; ester 1-C), the IC50 is above 20 µM in assay [1]; above 20 µM in assay [2]; above 20 µM in assay [3]; 1.8 µM in assay [4]; above 20 µM in assay [6].
